Assay [1] concerns the target T1, purified human Factor XIa (Homo sapiens, UniProt P03951).
T1 construct: purchased Haematologic Technologies
The assay is described as follows: Factor XIa inhibition assay, chromogenic substrate S-2366 (Ki). Format: biochemical. As to the method:
(§1) The effectiveness of compounds of the present invention as inhibitors of the coagulation Factors XIa, VIIa, IXa, Xa, XIIa, plasma kallikrein or thrombin, can be determined using a relevant purified serine protease, respectively, and an appropriate synthetic substrate. The rate of hydrolysis of the chromogenic or fluorogenic substrate by the relevant serine protease was measured both in the absence and presence of compounds of the present invention. […] A decrease in the rate of absorbance or fluorescence change in the presence of inhibitor is indicative of enzyme inhibition. Such methods are known to one skilled in the art. The results of this assay are expressed as the inhibitory constant, Ki.
Factor XIa determinations were made in 50 mM HEPES buffer at pH 7.4 containing 145 mM NaCl, 5 mM KCl, and 0.1% PEG 8000 (polyethylene glycol; JT Baker or Fisher Scientific). Determinations were made using purified human Factor XIa at a final concentration of 25-200 pM (Haematologic Technologies) and the synthetic substrate S-2366 (pyroGlu-Pro-Arg-pNA; Chromogenix or AnaSpec) at a concentration of 0.0002-0.001 M.
(§2) Values of Ki were determined by allowing the protease to react with the substrate in the presence of the inhibitor.
(§3) Reactions were allowed to go for periods of 20-180 minutes (depending on the protease) and the velocities (rate of absorbance or fluorescence change versus time) were measured.
(§4) The following relationships were used to calculate Ki values: (Vmax*S)/(Km+S) (vo−vs)/vs=I/(Ki(1+S/Km)) for a competitive inhibitor with one binding site; or vs/vo=A+((B−A)/1+((IC50/(I)^n))); and Ki=IC50/(1+S/Km) for a competitive inhibitor where: […]

Assay [2] has as its target T2, purified human plasma kallikrein (Homo sapiens, UniProt P03952).
T2 construct: Plasma prekallikrein is a zymogen of a trypsin-like serine protease; purchased Enzyme Research Laboratories
The assay is described as follows: Plasma kallikrein inhibition assay, chromogenic substrate S-2302 (Ki). The assay is classed as biochemical. As to the method: as §1
Plasma kallikrein determinations were made in 0.1 M sodium phosphate buffer at a pH of 7.5 containing 0.1-0.2 M sodium chloride and 0.5% PEG 8000. Determinations were made using purified human plasma kallikrein (Enzyme Research Laboratories) at a final assay concentration of 200 pM and the synthetic substrate S-2302 (H-(D)-Pro-Phe-Arg-pNA; Chromogenix) at a concentration of 0.00008-0.0004 M.
as §2, §3, §4

Results on 17 compounds are retold here after patent publication US10273236B2, “Macrocyclic factor XIa inhibitors bearing heterocyclic groups” (Bristol-Myers Squibb Company, priority 2014, dated 2019).

pKi: −log10 of the molar value. Where a name gives a salt, the structure may show the parent alone.

T1 sequence (P03951 388-625 limits assumed): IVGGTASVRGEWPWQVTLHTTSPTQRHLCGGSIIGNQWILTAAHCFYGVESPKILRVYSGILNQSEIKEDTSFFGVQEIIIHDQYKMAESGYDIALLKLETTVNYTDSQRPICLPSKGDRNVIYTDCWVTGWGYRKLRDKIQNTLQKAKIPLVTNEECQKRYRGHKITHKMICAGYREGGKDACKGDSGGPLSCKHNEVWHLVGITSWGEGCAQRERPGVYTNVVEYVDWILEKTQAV
T1 sequence (P03951 19-387 partner limits assumed): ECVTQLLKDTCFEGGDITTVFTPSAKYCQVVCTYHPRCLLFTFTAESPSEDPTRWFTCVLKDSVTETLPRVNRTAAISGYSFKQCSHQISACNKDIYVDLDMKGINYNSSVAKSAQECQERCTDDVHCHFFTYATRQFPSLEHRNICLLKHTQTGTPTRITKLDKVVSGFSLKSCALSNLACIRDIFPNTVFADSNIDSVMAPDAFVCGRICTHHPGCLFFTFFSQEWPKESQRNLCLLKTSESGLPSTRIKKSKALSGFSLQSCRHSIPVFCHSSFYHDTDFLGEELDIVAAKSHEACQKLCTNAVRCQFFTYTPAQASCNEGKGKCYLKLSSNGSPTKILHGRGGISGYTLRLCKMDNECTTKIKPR
T2 sequence (P03952 391-638 limits assumed): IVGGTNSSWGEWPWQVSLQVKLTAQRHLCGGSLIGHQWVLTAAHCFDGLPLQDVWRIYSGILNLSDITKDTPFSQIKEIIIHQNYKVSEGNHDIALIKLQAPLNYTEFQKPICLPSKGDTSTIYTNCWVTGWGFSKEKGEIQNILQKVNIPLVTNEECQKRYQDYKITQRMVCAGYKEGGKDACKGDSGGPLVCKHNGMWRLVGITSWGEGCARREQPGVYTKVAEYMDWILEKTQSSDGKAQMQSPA
T2 sequence (P03952 20-390 partner limits assumed): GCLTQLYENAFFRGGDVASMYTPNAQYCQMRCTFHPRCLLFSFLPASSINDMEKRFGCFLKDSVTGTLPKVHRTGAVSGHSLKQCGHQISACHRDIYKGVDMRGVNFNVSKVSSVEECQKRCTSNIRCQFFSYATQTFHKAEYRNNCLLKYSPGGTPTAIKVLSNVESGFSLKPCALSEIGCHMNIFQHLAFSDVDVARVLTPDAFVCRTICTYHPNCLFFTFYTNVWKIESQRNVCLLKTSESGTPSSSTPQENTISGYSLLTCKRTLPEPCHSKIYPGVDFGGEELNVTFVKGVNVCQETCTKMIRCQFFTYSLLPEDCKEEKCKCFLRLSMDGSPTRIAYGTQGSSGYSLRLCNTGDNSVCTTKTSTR

Consider `C[C@@H]1CCC[C@H](N2CCC(c3cc(Cl)ccc3-n3cc(Cl)nn3)=CC2=O)c2cccc(c2)-c2c(cnn2C)NC1=O` [Example 48, (9R,13S)-13-{4-[5-chloro-2-(4-chloro-1H-1,2,3-triazol-1-yl)phenyl]-6-oxo-1,2,3,6-tetrahydropyridin-1-yl}-3,9-dimethyl-3,4,7-triazatricyclo[12.3.1.0^2,6]octadeca-1(18),2(6),4,14,16-pentaen-8-one], for which the pKi – broadly, −log10 of the Ki, conventionally taken in molar units – in assay [1] is 9.89; in assay [2], 8.26.
On the same counts, the results for `[2H]C([2H])([2H])n1ncc2c1-c1ccnc(c1)[C@@H](N1CCC(c3c(OC(F)F)ccc(Cl)c3F)=CC1=O)CCC[C@@H](C)C(=O)N2` [Example 30, (9R,13S)-13-{4-[3-chloro-6-(difluoromethoxy)-2-fluorophenyl]-6-oxo-1,2,3,6-tetrahydropyridin-1-yl}-3-(^2H3)methyl-9-methyl-3,4,7,15-tetraazatricyclo[12.3.1.0^2,6]octadeca-1(18),2(6),4,14,16-pentaen-8-one] are 9.00 and 8.15.
On the same counts, the results for `C[C@@H]1CCC[C@H](N2CCC(c3c(C#N)ccc(Cl)c3F)=CC2=O)c2cc(ccn2)-c2c(cnn2C)NC1=O` [Example 39, 4-chloro-2-{1-[(9R,13S)-3,9-dimethyl-8-oxo-3,4,7,15-tetraazatricyclo[12.3.1.0^2,6]octadeca-1(18),2(6),4,14,16-pentaen-13-yl]-6-oxo-1,2,3,6-tetrahydropyridin-4-yl}-3-fluorobenzonitrile] are 8.96 and 6.92.
Consider `C[C@@H]1CCC[C@H](N2CCC(c3c(C(F)(F)F)ccc(Cl)c3F)=CC2=O)c2cc(ccn2)-c2c(cnn2C2CC2)NC1=O` [Example 60, (9R,13S)-13-{4-[3-chloro-2-fluoro-6-(trifluoromethyl)phenyl]-6-oxo-1,2,3,6-tetrahydropyridin-1-yl}-3-cyclopropyl-9-methyl-3,4,7,15-tetraazatricyclo[12.3.1.0^2,6]octadeca-1(18),2(6),4,14,16-pentaen-8-one], for which the figures for the pKi in assay [1] and in assay [2] were 8.14 and 7.66, respectively.
The like results for `C[C@@H]1CCC[C@H](N2CCC(c3cc(Cl)ccc3-n3ccnn3)=CC2=O)c2cc(ccn2)-c2nn(CC(=O)O)cc2NC1=O` [Example 12, 2-(13-{4-[5-chloro-2-(1H-1,2,3-triazol-1-yl)phenyl]-6-oxo-1,2,3,6-tetrahydropyridin-1l-yl}-9-methyl-8-oxo-3,4,7,15-tetraazatricyclo[12.3.1.0^2,6]octadeca-1(18),2,5,14,16-pentaen-4-yl)acetic Acid] were, in that order, 7.85 and 6.32.
As to `C[C@@H]1CCC[C@H](N2CCC(c3c(OC(F)F)ccc(Cl)c3F)=CC2=O)c2cc(ccn2)-c2c(cnn2C)NC1=O` [Example 23, (9R,13S)-13-{4-[3-chloro-6-(difluoromethoxy)-2-fluorophenyl]-6-oxo-1,2,3,6-tetrahydropyridin-1-yl}-3,9-dimethyl-3,4,7,15-tetraazatricyclo[12.3.1.0^2,6]octadeca-1(18),2(6),4,14,16-pentaen-8-one], the figures for the pKi in assay [1] and in assay [2] were 9.04 and 8.15, respectively.
Regarding `C[C@H]1C(=O)Nc2cnn(C)c2-c2ccnc(c2)[C@@H](N2CCC(c3cc(Cl)ccc3-n3cc(Cl)nn3)=CC2=O)CCC1F` (single isomer, unassigned; isomer b) [Example 15], the negative logarithm of the Ki (pKi) in assay [1] was 7.72; in assay [2] it was 6.35.
Consider `C[C@@H]1CCC[C@H](N2CCC(c3cc(Cl)ccc3C#N)=CC2=O)c2cc(ccn2)-c2c(cnn2C(F)F)NC1=O` [Example 19, 4-chloro-2-{1-[(9R,13S)-3-(difluoromethyl)-9-methyl-8-oxo-3,4,7,15-tetraazatricyclo[12.3.1.0^2,6]octadeca-1(18),2(6),4,14,16-pentaen-13-yl]-6-oxo-1,2,3,6-tetrahydropyridin-4-yl}benzonitrile], for which the pKi in assay [1] is 8.85; in assay [2] it was 8.00.
In the case of `[2H]C([2H])([2H])n1ncc2c1-c1ccnc(c1)[C@@H](N1CCC(c3c(C(F)(F)F)ccc(Cl)c3F)=CC1=O)CCC[C@@H](C)C(=O)N2` [Example 18, (9R,13S)-13-{4-[3-chloro-2-fluoro-6-(trifluoromethyl)phenyl]-6-oxo-1,2,3,6-tetrahydropyridin-1-yl}-3-(^2H3)methyl-9-methyl-3,4,7,15-tetraazatricyclo[12.3.1.0^2,6]octadeca-1(18),2(6),4,14,16-pentaen-8-one], the pKi in assay [1] is 8.55; in assay [2], 7.52.
In the case of `C[C@@H]1CCC[C@H](N2CCC(c3cc(Cl)ccc3-n3cc(Cl)nn3)=CC2=O)c2cc(ccn2)-c2[nH]ncc2NC1=O` [Example 58, (9R,13S)-13-{4-[5-chloro-2-(4-chloro-1H-1,2,3-triazol-1-yl)phenyl]-6-oxo-1,2,3,6-tetrahydropyridin-1-yl}-9-methyl-3,4,7,15-tetraazatricyclo[12.3.1.0^2,6]octadeca-1(18),2(6),4,14,16-pentaen-8-one], the results for the pKi in assay [1] and in assay [2] were 8.62 and 7.34, respectively.
On the same counts, the results for `C[C@@H]1CCC[C@H](N2CCC(c3c(-c4cnn(C(F)F)c4)ccc(Cl)c3F)=CC2=O)c2cc(ccn2)-c2c(cnn2C)NC1=O` [Example 41, (9R,13S)-13-(4-{3-chloro-6-[1-(difluoromethyl)-1H-pyrazol-4-yl]-2-fluorophenyl}-6-oxo-1,2,3,6-tetrahydropyridin-1-yl)-3,9-dimethyl-3,4,7,15-tetraazatricyclo[12.3.1.0^2,6]octadeca-1(18),2(6),4,14,16-pentaen-8-one] are 9.00 and 7.47.
`C[C@@H]1CCC[C@H](N2CCC(c3c(Cl)ccc(Cl)c3F)=CC2=O)c2cc(ccn2)-c2c(cnn2C)NC1=O` [Example 24, (9R,13S)-13-[4-(3,6-dichloro-2-fluorophenyl)-6-oxo-1,2,3,6-tetrahydropyridin-1-yl]-3,9-dimethyl-3,4,7,15-tetraazatricyclo[12.3.1.0^2,6]octadeca-1(18),2(6),4,14,16-pentaen-8-one]: the figures for the negative logarithm of the Ki (pKi) in assay [1] and in assay [2] were 8.57 and 8.22, respectively.
On the same counts, the results for `C[C@@H]1CCC[C@H](N2CCC(c3c(Cl)ccc(Cl)c3F)=CC2=O)c2cc(ccn2)-c2c(cnn2C(F)F)NC1=O` [Example 31, (9R,13S)-13-[4-(3,6-dichloro-2-fluorophenyl)-6-oxo-1,2,3,6-tetrahydropyridin-1-yl]-3-(difluoromethyl)-9-methyl-3,4,7,15-tetraazatricyclo [12.3.1.0^2,6]octadeca-1(18),2(6),4,14,16-pentaen-8-one] are 8.72 and 7.96.
With `C[C@H]1C(=O)Nc2cnn(C)c2-c2ccnc(c2)[C@@H](n2ccc(-c3c(C(F)(F)F)ccc(Cl)c3F)cc2=O)CCC1F` (stereo partly drawn) [Example 28, (9S,13S)-13-{4-[3-chloro-2-fluoro-6-(trifluoromethyl)phenyl]-2-oxo-1,2-dihydropyridin-1-yl}-10-fluoro-3,9-dimethyl-3,4,7,15-tetraazatricyclo[12.3.1.0^2,6]octadeca-1(18),2(6),4,14,16-pentaen-8-one trifluoroacetate], the pKi in assay [1] is 8.52; in assay [2], 7.60.
`CC(C)[C@@H]1CCC[C@H](N2CCC(c3cc(Cl)ccc3-n3cc(Cl)nn3)=CC2=O)c2cc(ccn2)-c2c(cnn2C)NC1=O` [Example 25, (9S,13S)-13-{4-[5-chloro-2-(4-chloro-1H-1,2,3-triazol-1-yl)phenyl]-6-oxo-1,2,3,6-tetrahydropyridin-1-yl}-3-methyl-9-(propan-2-yl)-3,4,7,15-tetraazatricyclo[12.3.1.0^2,6]octadeca-1(18),2(6),4,14,16-pentaen-8-one]: the negative-log Ki (pKi) in assay [1] is 9.33; in assay [2], 7.80.
For `C[C@@H]1CCC[C@H](n2ccc(-c3c(Cl)ccc(Cl)c3F)cc2=O)c2cc(ccn2)-c2c(cnn2C)NC1=O` [Example 44, (9R,13S)-13-[4-(3,6-dichloro-2-fluorophenyl)-2-oxo-1,2-dihydropyridin-1-yl]-3,9-dimethyl-3,4,7,15-tetraazatricyclo[12.3.1.0^2,6]octadeca-1(18),2(6),4,14,16-pentaen-8-one], the values for the negative-log Ki (pKi) in assay [1] and in assay [2] were 8.66 and 8.24, respectively.
Turning to `C[C@@H]1CCC[C@H](N2CCC(c3c(F)ccc(Cl)c3F)=CC2=O)c2cc(ccn2)-c2c(cnn2C)NC1=O` [Example 2, (9R,13S)-13-[4-(3-chloro-2,6-difluorophenyl)-6-oxo-1,2,3,6-tetrahydropyridin-1-yl]-3,9-dimethyl-3,4,7,15-tetraazatricyclo[12.3.1.0^2,6]octadeca-1(18),2(6),4,14,16-pentaen-8-one], the results for the negative logarithm of the Ki (pKi) in assay [1] and in assay [2] were 8.00 and 7.52, respectively.
